Here are results for four compounds from ChEMBL document CHEMBL3994622, “Design and synthesis of new RAF kinase-inhibiting antiproliferative quinoline derivatives. Part 2: Diarylurea derivatives” (Eur J Med Chem, 2017).

Type in all cases: functional
In one test the test system is M14. Kind of test: Growth inhibition of human M14 cells assessed as cell growth at 0.003 uM incubated for 48 hrs by sulforhodamine B assay relative to control. To be noted: M14, 48 h, read-out: Activity.
In test [1] the test system is OVCAR-8. Kind of test: Growth inhibition of human OVCAR8 cells assessed as cell growth at 0.3 uM incubated for 48 hrs by sulforhodamine B assay relative to control. As to conditions: OVCAR-8, 48 h, read-out: Activity. Background: In SRB staining, fixed cells bind dye roughly in proportion to their protein.
The subject of a further test is TK-10. Kind of test: Growth inhibition of human TK10 cells assessed as cell growth at 30 uM incubated for 48 hrs by sulforhodamine B assay relative to control. To be noted: TK-10, 48 h, read-out: Activity.
Another test has as its system IGROV-1. Kind of test: Growth inhibition of human IGROV1 cells assessed as cell growth at 0.03 uM incubated for 48 hrs by sulforhodamine B assay relative to control. As to conditions: IGROV-1, 48 h, read-out: Activity.
The test system of another test is SK-MEL-5. Kind of test: Growth inhibition of human SK-MEL-5 cells assessed as cell growth at 0.3 uM incubated for 48 hrs by sulforhodamine B assay relative to control. To be noted: SK-MEL-5, 48 h, read-out: Activity.
The subject of test [2] is OVCAR-8. Kind of test: Growth inhibition of human OVCAR8 cells assessed as cell growth at 0.03 uM incubated for 48 hrs by sulforhodamine B assay relative to control. As to conditions: OVCAR-8, 48 h, read-out: Activity.
Another test concerns SR. In words: Growth inhibition of human SR cells assessed as cell growth at 0.3 uM incubated for 48 hrs by sulforhodamine B assay relative to control. To be noted: read-out: Activity.
Another test concerns HCT-15. In words: Growth inhibition of human HCT15 cells assessed as cell growth at 0.03 uM incubated for 48 hrs by sulforhodamine B assay relative to control. As to conditions: HCT-15, 48 h, read-out: Activity.
The next test relates to RPMI-8226. Kind of test: Growth inhibition of human RPMI8226 cells assessed as cell growth at 3 uM incubated for 48 hrs by sulforhodamine B assay relative to control. As to conditions: RPMI-8226, 48 h, read-out: Activity.
Test [3] has as its system SK-MEL-2. Kind of test: Growth inhibition of human SK-MEL-2 cells assessed as cell growth at 0.003 uM incubated for 48 hrs by sulforhodamine B assay relative to control. As to conditions: SK-MEL-2, 48 h, read-out: Activity.
In test [4] the test system is SK-MEL-2. Kind of test: Growth inhibition of human SK-MEL-2 cells assessed as cell growth at 3 uM incubated for 48 hrs by sulforhodamine B assay relative to control. As to conditions: SK-MEL-2, 48 h, read-out: Activity.
Another test concerns PC-3. Kind of test: Growth inhibition of human PC3 cells assessed as cell growth at 0.3 uM incubated for 48 hrs by sulforhodamine B assay relative to control. To be noted: PC-3, 48 h, read-out: Activity.
Test [5] concerns UACC-257. In words: Growth inhibition of human UACC257 cells assessed as cell growth at 30 uM incubated for 48 hrs by sulforhodamine B assay relative to control. To be noted: UACC-257, 48 h, read-out: Activity.
A further test has as its system NCI-H460. In words: Growth inhibition of human NCI-H460 cells assessed as cell growth at 30 uM incubated for 48 hrs by sulforhodamine B assay relative to control. To be noted: NCI-H460, 48 h, read-out: Activity.
Another test relates to CCRF-CEM. Kind of test: Growth inhibition of human CCRF-CEM cells assessed as cell growth at 0.3 uM incubated for 48 hrs by sulforhodamine B assay relative to control. To be noted: read-out: Activity.
The next test concerns Malme-3M. In words: Growth inhibition of human MALME-3M cells assessed as cell growth at 30 uM incubated for 48 hrs by sulforhodamine B assay relative to control. As to conditions: read-out: Activity.
The subject of test [6] is SF-295. In words: Growth inhibition of human SF295 cells assessed as cell growth at 10 uM incubated for 48 hrs by sulforhodamine B assay relative to control. To be noted: SF-295, 48 h, read-out: Activity.
A further test concerns DU-145. In words: Growth inhibition of human DU145 cells assessed as cell growth at 1 uM incubated for 48 hrs by sulforhodamine B assay relative to control. To be noted: DU-145, 48 h, read-out: Activity.
The subject of another test is OVCAR-5. In words: Growth inhibition of human OVCAR5 cells assessed as cell growth at 0.1 uM incubated for 48 hrs by sulforhodamine B assay relative to control. As to conditions: OVCAR-5, 48 h, read-out: Activity.
The subject of another test is HOP-62. In words: Growth inhibition of human HOP62 cells assessed as cell growth at 1 uM incubated for 48 hrs by sulforhodamine B assay relative to control. To be noted: HOP-62, 48 h, read-out: Activity.
The test system of test [7] is SF-295. In words: Growth inhibition of human SF295 cells assessed as cell growth at 100 uM incubated for 48 hrs by sulforhodamine B assay relative to control. To be noted: SF-295, 48 h, read-out: Activity.
Test [8] relates to UACC-257. In words: Growth inhibition of human UACC257 cells assessed as cell growth at 10 uM incubated for 48 hrs by sulforhodamine B assay relative to control. To be noted: UACC-257, 48 h, read-out: Activity.
Test [9] concerns SF-295. Kind of test: Growth inhibition of human SF295 cells assessed as cell growth at 0.01 uM incubated for 48 hrs by sulforhodamine B assay relative to control. As to conditions: SF-295, 48 h, read-out: Activity.
In a further test the test system is 786-0. In words: Growth inhibition of human 786-0 cells assessed as cell growth at 10 uM incubated for 48 hrs by sulforhodamine B assay relative to control. To be noted: 786-0, 48 h, read-out: Activity.
Another test deals with SW-620. In words: Growth inhibition of human SW620 cells assessed as cell growth at 10 uM incubated for 48 hrs by sulforhodamine B assay relative to control. As to conditions: SW-620, 48 h, read-out: Activity.
The next test relates to UO-31. In words: Growth inhibition of human UO31 cells assessed as cell growth at 100 uM incubated for 48 hrs by sulforhodamine B assay relative to control. As to conditions: UO-31, 48 h, read-out: Activity.
A further test relates to OVCAR-3. Kind of test: Growth inhibition of human OVCAR3 cells assessed as cell growth at 0.1 uM incubated for 48 hrs by sulforhodamine B assay relative to control. As to conditions: OVCAR-3, 48 h, read-out: Activity.
For a further test, the system named is NCI/ADR-RES. In words: Growth inhibition of human NCI/ADR-RES cells assessed as cell growth at 10 uM incubated for 48 hrs by sulforhodamine B assay relative to control. As to conditions: read-out: Activity.
Another test relates to NCI-H322M. In words: Growth inhibition of human NCI-H322M cells assessed as cell growth at 0.01 uM incubated for 48 hrs by sulforhodamine B assay relative to control. To be noted: read-out: Activity.
The subject of another test is SNB-75. In words: Growth inhibition of human SNB75 cells assessed as cell growth at 0.1 uM incubated for 48 hrs by sulforhodamine B assay relative to control. As to conditions: SNB-75, 48 h, read-out: Activity.
The test system of the next test is SF-268. In words: Growth inhibition of human SF268 cells assessed as cell growth at 10 uM incubated for 48 hrs by sulforhodamine B assay relative to control. To be noted: SF-268, 48 h, read-out: Activity.
The subject of a further test is HCT-116. In words: Growth inhibition of human HCT116 cells assessed as cell growth at 1 uM incubated for 48 hrs by sulforhodamine B assay relative to control. As to conditions: HCT-116, 48 h, read-out: Activity.
A further test concerns A549. Kind of test: Growth inhibition of human A549/ATCC cells assessed as cell growth at 0.1 uM incubated for 48 hrs by sulforhodamine B assay relative to control. As to conditions: A549, 48 h, read-out: Activity.
The test system of another test is HL-60(TB). In words: Growth inhibition of human HL-60(TB) cells assessed as cell growth at 10 uM incubated for 48 hrs by sulforhodamine B assay relative to control. To be noted: HL-60, 48 h, read-out: Activity.

As to `Cc1nc2cc(O)c(O)cc2cc1Oc1ccc(NC(=O)Nc2ccc(Cl)c(Cl)c2)cc1`, the growth at 0.003 µM turned out to be 96% in the test on M14 and 107% in the test with SK-MEL-2 [3]. For the same compound, the growth at 0.3 µM in the test with OVCAR-8 [1] came out at 94%; in the test on SK-MEL-5, 97%; with SR, 98%; in the test with PC-3 it was 97%; in the test with CCRF-CEM, 98%. The growth at 30 µM in the test with TK-10 is 23%; in the test with UACC-257 [5] it was -20%; with NCI-H460, -44%; with Malme-3M, -10%. The growth at 0.03 µM with IGROV-1 came out at 104%; with OVCAR-8 [2], 93%; in the test with HCT-15, 98%. In addition, the results for the growth at 3 µM in the test on RPMI-8226 and with SK-MEL-2 [4] were 92% and 107%, respectively.
For the compound `COc1cc2cc(Oc3ccc(NC(=O)Nc4ccc(Cl)c(C(F)(F)F)c4)cc3)c(C)nc2cc1OC`, the growth at 0.003 µM in the test with M14 was 97%; in the test with SK-MEL-2 [3], 96%. For the same compound, the growth at 0.3 µM with OVCAR-8 [1] worked out at 96%; in the test on SK-MEL-5, 94%; in the test with SR, 91%; in the test with PC-3 it was 83%; in the test on CCRF-CEM it was 101%. Besides, the growth at 30 µM in the test with TK-10 was -46%; in the test with UACC-257 [5], -60%; with NCI-H460, -62%; in the test with Malme-3M, -37%. Further, the growth at 0.03 µM was 107% in the test on IGROV-1, 94% in the test on OVCAR-8 [2] and 93% in the test with HCT-15. In addition, the growth at 3 µM in the test with RPMI-8226 is -36%; with SK-MEL-2 [4], -29%.
Turning to `COc1cc2cc(Oc3ccc(NC(=O)Nc4ccc(Cl)c(Cl)c4)cc3)c(C)nc2cc1OC`, the growth at 10 µM in the test on SF-295 [6] is -22%; in the test with UACC-257 [8], -23%; in the test on 786-0, 22%; with SW-620 it was 16%; in the test with NCI/ADR-RES it was 14%; with SF-268, 44%. For the same compound, in the test on HL-60(TB), the growth at 10 µM was -22%. In addition, the results for the growth at 1 µM in the test with DU-145, in the test on HOP-62 and in the test with HCT-116 were 102%, 101% and 76%, respectively. For the same compound, the growth at 0.1 µM in the test with OVCAR-5 is 104%; in the test with OVCAR-3, 116%; in the test with SNB-75, 75%; in the test with A549, 94%. In addition, the growth at 100 µM in the test on SF-295 [7] is -56%; in the test with UO-31, -57%. Also, the growth at 0.01 µM in the test with SF-295 [9] came out at 88%; in the test with NCI-H322M, 100%.
With `COc1cc2cc(Oc3ccc(NC(=O)Nc4cc(C(F)(F)F)cc(C(F)(F)F)c4)cc3)c(C)nc2cc1OC`, the growth at 10 µM in the test with SF-295 [6] is -76%; in the test on UACC-257 [8], -38%; in the test with 786-0 it was -90%; in the test with SW-620 it was -26%; with NCI/ADR-RES, -54%; in the test with SF-268, -61%. Further, the growth at 10 µM with HL-60(TB) is -41%. In addition, the values for the growth at 1 µM in the test on DU-145, in the test with HOP-62 and with HCT-116 were 82%, 70% and 33%, respectively. For the same compound, the growth at 0.1 µM in the test with OVCAR-5 was 92%; in the test on OVCAR-3 it was 101%; in the test on SNB-75 it was 74%; with A549, 99%. For the same compound, the growth at 100 µM is -84% in the test with SF-295 [7] and -89% in the test on UO-31. The values for the growth at 0.01 µM in the test on SF-295 [9] and with NCI-H322M were 88% and 94%, respectively.
